# PubChem BioAssay AID1745844 (Carcinogenic Potency Database (CPDB), 2022)
# The source made the active and inactive calls. The rule behind the calls is not given here.
# Tested on: rodent lifetime carcinogenesis bioassay, tumor incidence TD50
# Assay: chronic cancer bioassays in animals – CPDB, compiled studies (AID 1745844)
smiles,measurement,setting,value
[Cl][Sn][Cl],TD50,"mouse, strain B6C3F1, females, in feed, site: all sites, lesion: lymphoma, histiocytic type, dosed 105 weeks, study length 105 weeks",2550 mg/kg/day
same,TD50,"mouse, strain B6C3F1, females, in feed, site: any site (literature study), lesion: several types, types named in the paper, dosed 105 weeks, study length 105 weeks",386 mg/kg/day
same,TD50,"mouse, strain B6C3F1, females, in feed, site: liver, lesion: hepatocellular adenoma + hepatocellular carcinoma + neoplastic nodule, dosed 105 weeks, study length 105 weeks",1020 mg/kg/day
same,TD50,"mouse, strain B6C3F1, females, in feed, site: liver, lesion: hepatocellular carcinoma, dosed 105 weeks, study length 105 weeks",1420 mg/kg/day
same,TD50,"mouse, strain B6C3F1, females, in feed, site: pituitary gland, lesion: adenoma, dosed 105 weeks, study length 105 weeks",1390 mg/kg/day (inactive)
same,carcinogen call,"mouse, strain B6C3F1, males, in feed, site: any site (literature study), lesion: several types, types named in the paper, dosed 105 weeks, study length 105 weeks",negative (inactive)
same,carcinogen call,"mouse, strain Charles River CD1, both sexes, in drinking water, site: any site (literature study), lesion: benign tumor, dosed 104 weeks, study length 104 weeks",negative (inactive)
same,carcinogen call,"mouse, strain Charles River CD1, both sexes, in drinking water, site: any site (literature study), lesion: malignant tumor, dosed 104 weeks, study length 104 weeks",negative (inactive)
same,carcinogen call,"mouse, strain Charles River CD1, both sexes, in drinking water, site: any site (literature study), lesion: several types, types named in the paper, dosed 104 weeks, study length 104 weeks",negative (inactive)
same,carcinogen call,"mouse, strain Charles River CD1, both sexes, in drinking water, site: lung, lesion: adenoma, dosed 104 weeks, study length 104 weeks",negative (inactive)
same,carcinogen call,"mouse, strain Charles River CD1, both sexes, in drinking water, site: lung, lesion: several types, types named in the paper, dosed 104 weeks, study length 104 weeks",negative (inactive)
same,TD50,"rat, strain Fischer 344, females, in feed, site: any site (literature study), lesion: several types, types named in the paper, dosed 105 weeks, study length 104 weeks",12000 mg/kg/day (inactive)
same,TD50,"rat, strain Fischer 344, females, in feed, site: liver, lesion: hepatocellular adenoma + hepatocellular carcinoma + neoplastic nodule, dosed 105 weeks, study length 104 weeks",676000 mg/kg/day
same,TD50,"rat, strain Fischer 344, males, in feed, site: any site (literature study), lesion: several types, types named in the paper, dosed 104 weeks, study length 104 weeks",180 mg/kg/day
same,TD50,"rat, strain Fischer 344, males, in feed, site: lung, lesion: alveolar/bronchiolar adenoma, dosed 104 weeks, study length 104 weeks",951 mg/kg/day
same,TD50,"rat, strain Fischer 344, males, in feed, site: thyroid gland, lesion: c-cell adenoma + c-cell carcinoma, dosed 104 weeks, study length 104 weeks",87.4 mg/kg/day (inactive)
same,TD50,"rat, strain Fischer 344, males, in feed, site: thyroid gland, lesion: c-cell carcinoma, dosed 104 weeks, study length 104 weeks",405 mg/kg/day
same,carcinogen call,"rat, strain Long-Evans BLU:(LE), both sexes, in drinking water, site: any site (literature study), lesion: malignant tumor, dosed 156 weeks, study length 156 weeks",negative (inactive)
same,carcinogen call,"rat, strain Long-Evans BLU:(LE), both sexes, in drinking water, site: any site (literature study), lesion: one or several types, types not named, dosed 156 weeks, study length 156 weeks",negative (inactive)
same,carcinogen call,"rat, strain Long-Evans BLU:(LE), both sexes, in drinking water, site: liver, lesion: one or several types, types not named, dosed 156 weeks, study length 156 weeks",negative (inactive)
Cc1ccccc1S(N)(=O)=O,TD50,"rat, strain Charles River CD (Sprague-Dawley), females, in feed, site: liver, lesion: Kupffer-cell sarcoma, dosed 142 weeks, study length 142 weeks",8520 mg/kg/day
same,TD50,"rat, strain Charles River CD (Sprague-Dawley), females, in feed, site: liver, lesion: neoplastic nodule, dosed 142 weeks, study length 142 weeks",21700 mg/kg/day
same,TD50,"rat, strain Charles River CD (Sprague-Dawley), females, in feed, site: mammary gland, lesion: adenocarcinoma, dosed 142 weeks, study length 142 weeks",12.2 mg/kg/day
same,TD50,"rat, strain Charles River CD (Sprague-Dawley), males, in feed, site: liver, lesion: angiosarcoma, dosed 142 weeks, study length 142 weeks",17200 mg/kg/day
same,TD50,"rat, strain Charles River CD (Sprague-Dawley), males, in feed, site: liver, lesion: neoplastic nodule, dosed 142 weeks, study length 142 weeks",35900 mg/kg/day
same,TD50,"rat, strain Sprague-Dawley, both sexes, in feed, site: all sites, lesion: leukemia, dosed 133 weeks, study length 142 weeks",375 mg/kg/day
same,TD50,"rat, strain Sprague-Dawley, both sexes, in feed, site: any site (literature study), lesion: malignant tumor, dosed 133 weeks, study length 142 weeks",13300 mg/kg/day
same,TD50,"rat, strain Sprague-Dawley, both sexes, in feed, site: urinary bladder, lesion: several types, types named in the paper, dosed 133 weeks, study length 142 weeks",3960 mg/kg/day
same,carcinogen call,"rat, strain Wistar, females, in drinking water, site: liver, lesion: hepatocellular carcinoma, dosed 102 weeks, study length 102 weeks",negative (inactive)
CCOP(=S)(OCC)Oc1ccc([N+](=O)[O-])cc1,carcinogen call,"mouse, strain B6C3F1, females, in feed, site: any site (literature study), lesion: several types, types named in the paper, dosed 80 weeks, study length 89 weeks",negative (inactive)
same,TD50,"mouse, strain B6C3F1, males, in feed, site: any site (literature study), lesion: several types, types named in the paper, dosed 67 weeks, study length 89 weeks",75.1 mg/kg/day (inactive)
same,TD50,"mouse, strain B6C3F1, males, in feed, site: liver, lesion: hepatocellular adenoma + hepatocellular carcinoma + neoplastic nodule, dosed 67 weeks, study length 89 weeks",111 mg/kg/day
same,TD50,"mouse, strain B6C3F1, males, in feed, site: lung, lesion: alveolar/bronchiolar adenoma + alveolar/bronchiolar carcinoma, dosed 67 weeks, study length 89 weeks",52.5 mg/kg/day
same,TD50,"rat, strain Osborne-Mendel, females, in feed, site: adrenal gland, lesion: cortical adenoma + cortical carcinoma, dosed 80 weeks, study length 109 weeks",3.93 mg/kg/day
same,TD50,"rat, strain Osborne-Mendel, females, in feed, site: adrenal gland, lesion: cortical adenoma, dosed 80 weeks, study length 109 weeks",5.31 mg/kg/day
same,carcinogen call,"rat, strain Osborne-Mendel, females, in feed, site: any site (literature study), lesion: several types, types named in the paper, dosed 80 weeks, study length 112 weeks",negative (inactive)
same,TD50,"rat, strain Osborne-Mendel, females, in feed, site: liver, lesion: hepatocellular adenoma + hepatocellular carcinoma + neoplastic nodule, dosed 80 weeks, study length 112 weeks",16.4 mg/kg/day
same,TD50,"rat, strain Osborne-Mendel, females, in feed, site: mammary gland, lesion: fibroadenoma, dosed 80 weeks, study length 109 weeks",2.07 mg/kg/day
same,TD50,"rat, strain Osborne-Mendel, males, in feed, site: adrenal gland, lesion: cortical adenoma + cortical carcinoma, dosed 80 weeks, study length 109 weeks",5.22 mg/kg/day
same,TD50,"rat, strain Osborne-Mendel, males, in feed, site: adrenal gland, lesion: cortical adenoma, dosed 80 weeks, study length 109 weeks",6.39 mg/kg/day
same,TD50,"rat, strain Osborne-Mendel, males, in feed, site: any site (literature study), lesion: several types, types named in the paper, dosed 80 weeks, study length 112 weeks",3.65 mg/kg/day (inactive)
same,TD50,"rat, strain Osborne-Mendel, males, in feed, site: liver, lesion: hepatocellular adenoma + hepatocellular carcinoma + neoplastic nodule, dosed 80 weeks, study length 112 weeks",17.7 mg/kg/day
same,TD50,"rat, strain Osborne-Mendel, males, in feed, site: pancreatic islets, lesion: islet-cell carcinoma, dosed 80 weeks, study length 109 weeks",19.2 mg/kg/day
OCC(O)[C@@H](O)[C@H](O)[C@H](O)CO[C@H]1O[C@H](CO)[C@@H](O)[C@H](O)[C@H]1O (stereo not given in full),TD50,"mouse, strain Cpb:Swiss random, females, in feed, site: any site (literature study), lesion: one or several types, types not named, dosed 104 weeks, study length 104 weeks",83400 mg/kg/day (inactive)
same,carcinogen call,"mouse, strain Cpb:Swiss random, females, in feed, site: liver, lesion: one or several types, types not named, dosed 104 weeks, study length 104 weeks",negative (inactive)
same,TD50,"mouse, strain Cpb:Swiss random, females, in feed, site: lung, lesion: alveolar-cell tumor, dosed 104 weeks, study length 104 weeks",92600 mg/kg/day (inactive)
same,carcinogen call,"mouse, strain Cpb:Swiss random, males, in feed, site: any site (literature study), lesion: one or several types, types not named, dosed 94 weeks, study length 94 weeks",negative (inactive)
same,carcinogen call,"mouse, strain Cpb:Swiss random, males, in feed, site: liver, lesion: hepatocellular carcinoma, dosed 94 weeks, study length 94 weeks",negative (inactive)
same,carcinogen call,"mouse, strain Cpb:Swiss random, males, in feed, site: liver, lesion: neoplastic nodule, dosed 94 weeks, study length 94 weeks",negative (inactive)
same,TD50,"mouse, strain Cpb:Swiss random, males, in feed, site: lung, lesion: alveolar-cell tumor, dosed 94 weeks, study length 94 weeks",26200 mg/kg/day (inactive)
O=[N+]([O-])c1cc(N(CCO)CCO)ccc1NCCO,TD50,"mouse, strain B6C3F1, females, in feed, site: any site (literature study), lesion: several types, types named in the paper, dosed 104 weeks, study length 105 weeks",42000 mg/kg/day (inactive)
same,TD50,"mouse, strain B6C3F1, females, in feed, site: liver, lesion: hepatocellular adenoma + hepatocellular carcinoma + neoplastic nodule, dosed 104 weeks, study length 105 weeks",19000 mg/kg/day
same,TD50,"mouse, strain B6C3F1, males, in feed, site: all sites, lesion: malignant lymphoma, histiocytic type + malignant lymphoma, mixed type + malignant lymphoma, lymphocytic type, dosed 104 weeks, study length 105 weeks",4040 mg/kg/day
same,TD50,"mouse, strain B6C3F1, males, in feed, site: all sites, lesion: malignant lymphoma, lymphocytic type, dosed 104 weeks, study length 105 weeks",5450 mg/kg/day
same,TD50,"mouse, strain B6C3F1, males, in feed, site: any site (literature study), lesion: several types, types named in the paper, dosed 104 weeks, study length 105 weeks",5020 mg/kg/day
same,TD50,"mouse, strain B6C3F1, males, in feed, site: liver, lesion: hepatocellular adenoma + hepatocellular carcinoma + neoplastic nodule, dosed 104 weeks, study length 105 weeks",6550 mg/kg/day
same,TD50,"mouse, strain B6C3F1, males, in feed, site: skin + subcutaneous tissue, lesion: fibrosarcoma + fibroma, dosed 104 weeks, study length 105 weeks",970 mg/kg/day (inactive)
same,TD50,"rat, strain Fischer 344, females, in feed, site: any site (literature study), lesion: several types, types named in the paper, dosed 103 weeks, study length 104 weeks",3.13e+06 mg/kg/day
same,TD50,"rat, strain Fischer 344, females, in feed, site: liver, lesion: hepatocellular adenoma + hepatocellular carcinoma + neoplastic nodule, dosed 103 weeks, study length 104 weeks",8150 mg/kg/day
same,TD50,"rat, strain Fischer 344, females, in feed, site: liver, lesion: hepatocellular carcinoma + neoplastic nodule, dosed 103 weeks, study length 104 weeks",8150 mg/kg/day (inactive)
same,TD50,"rat, strain Fischer 344, males, in feed, site: liver, lesion: hepatocellular adenoma + hepatocellular carcinoma + neoplastic nodule, dosed 103 weeks, study length 104 weeks",20300 mg/kg/day
same,TD50,"rat, strain Fischer 344, males, in feed, site: thyroid gland, lesion: c-cell carcinoma, dosed 103 weeks, study length 104 weeks",1990 mg/kg/day (inactive)
CCOC(=O)N(C)N=O,TD50,"hamster, strain Syrian Golden, both sexes, by gavage, site: esophagus, lesion: epidermoid carcinoma, dosed 27 weeks, study length 73 weeks",0.127 mg/kg/day
same,carcinogen call,"hamster, strain Syrian Golden, both sexes, by gavage, site: forestomach, lesion: epidermoid carcinoma, dosed 27 weeks, study length 73 weeks",positive
O=NN1CCC(=O)NC1=O,TD50,"rat, strain MRC-Wistar, females, in drinking water, site: any site (literature study), lesion: several types, types named in the paper, dosed 41 weeks, study length 70 weeks",0.13 mg/kg/day
same,TD50,"rat, strain MRC-Wistar, females, in drinking water, site: liver, lesion: hepatocellular carcinoma, dosed 41 weeks, study length 70 weeks",0.104 mg/kg/day
same,TD50,"rat, strain MRC-Wistar, females, in drinking water, site: liver, lesion: several types, types named in the paper, dosed 41 weeks, study length 70 weeks",0.104 mg/kg/day
same,TD50,"rat, strain MRC-Wistar, males, in drinking water, site: any site (literature study), lesion: several types, types named in the paper, dosed 41 weeks, study length 70 weeks",0.125 mg/kg/day
same,TD50,"rat, strain MRC-Wistar, males, in drinking water, site: liver, lesion: hepatocellular carcinoma, dosed 41 weeks, study length 70 weeks",0.0932 mg/kg/day
same,TD50,"rat, strain MRC-Wistar, males, in drinking water, site: liver, lesion: several types, types named in the paper, dosed 41 weeks, study length 70 weeks",0.0932 mg/kg/day
